Data from patent publication US5256686A, “Phenylalkan(en)oic acid” (Ono Pharmaceutical Co., Ltd., priority 1989, dated 1993).

molecular target: T1, human PMNL LTB4 receptor (Homo sapiens, UniProt Q15722); assay: Binding affinity of 3H-LTB4 antagonist to human PMNL LTB4 receptor (inhibition of specific 3H-LTB4 binding); settings: 1 nM 3H-LTB4, human PMNLs, 4° C., 20 min
T1 construct: endogenous in cells; host or cells: human polymorphonuclear leukocytes (PMNL), intact cells
Experimental: Human PMNLS (1×10^7 cells) were incubated with 1 nM ^3 H-LTB4 in Hanks balanced salt solution (1 ml) at 4° C. for 20 min. in the presence or absence of increasing concentrations of unlabeled LTB4 or various compounds. Free ^3 H-LTB4 was separated from PMNLs-bound ligands by vacuum filteration through Whatman GF/B or C glass fiber filters. The filters were then washed rapidly 4 times with 2.5 ml of the ice-cold phosphate buffered saline. The radioactivity retained in the filter was determined by liquid scintillation counting. Specific binding was defined as the difference between total binding and binding in the presence of 3 μM LTB4 (nonspecific binding). The inhibitory effect of specific ^3 H-LTB4 binding was calculated from the following equation.
The percentage of inhibition (%)=100-(B1 /B0 ×100)
B1 : specific ^3 H-LTB4 binding in presence of antagonist
B0 : specific ^3 H-LTB4 binding in absence of antagonist

T1 sequence (Q15722 whole entry): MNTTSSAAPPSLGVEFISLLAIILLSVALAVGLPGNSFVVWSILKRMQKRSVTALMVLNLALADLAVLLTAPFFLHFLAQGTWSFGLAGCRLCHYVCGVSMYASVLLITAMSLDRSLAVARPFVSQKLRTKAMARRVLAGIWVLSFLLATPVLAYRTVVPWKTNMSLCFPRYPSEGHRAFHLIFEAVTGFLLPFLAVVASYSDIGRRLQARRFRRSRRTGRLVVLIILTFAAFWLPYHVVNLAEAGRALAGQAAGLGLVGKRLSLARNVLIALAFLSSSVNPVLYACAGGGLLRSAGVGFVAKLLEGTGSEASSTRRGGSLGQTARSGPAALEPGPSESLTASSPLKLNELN

| Compound | IC50 |
| --- | --- |
| CCCCCCCCCCCCOc1ccc(NC(=O)CCCC(=O)N(C)C)cc1CCC(=O)O [1 (c), 3-[1-n-dodecyloxy-4-(4-dimethylaminocarbonylbutanamido)benzen-2-yl]propionic acid] | 1000 nM |
| CCCCCOc1ccc(/C=C/CCCCOc2ccc(NC(=O)CCCC(=O)N(C)C)cc2CCC(=O)O)cc1 [1 (i), 3-[1-[6-(4-n-pentyloxyphenyl)hex-5E-enyl]oxy-4-(4-dimethylaminocarbonylbutanamido)benzen-2-yl]propionic acid] | 400 nM |
| COc1ccc(CCCCCCOc2ccc(NC(=O)CCCC(=O)N(C)C)cc2CCC(=O)O)cc1 [1 (j), 3-[1-[6-(4-methoxyphenyl)-n-hexyl]oxy-4-(4-dimethylaminocarbonylbutanamido)benzen-2-yl]propionic acid] | 200 nM |
| COc1cccc(/C=C/CCCCOc2ccc(NC(=O)CCCC(=O)N(C)C)cc2CCC(=O)O)c1 [1 (m), 3-[1-[6-(3-methoxyphenyl)hex-5E-enyl]oxy-4-(4-dimethylaminocarbonylbutanamido)benzen-2-yl]propionic acid] | 490 nM |
| COc1ccc(/C=C/CCCCOc2ccc(NC(=O)CCCC(=O)N(C)C)cc2CCC(=O)O)cc1OC [1 (r), 3-[1-[6-(3,4-dimethoxyphenyl)hex-5E-enyl]oxy-4-(4-dimethylaminocarbonylbutanamido)benzen-2-yl]propionic acid] | 1100 nM |
| CN(C)C(=O)CCCC(=O)Nc1ccc(OCCCC/C=C/c2ccc(Cl)cc2)c(CCC(=O)O)c1 [1 (t), 3-[1-[6-(4-chlorophenyl)hex-5E-enyl]oxy-4-(4-dimethylaminocarbonylbutanamido)benzen-2-yl]propionic acid] | 220 nM |
| COc1ccc(/C=C/CCCCOc2ccc(NC(=O)CCCC(=O)O)cc2/C=C/C(=O)O)cc1 [2 (a), 3-[1-[6-(4-methoxyphenyl)hex-5E-enyl]oxy-4-(4-carboxylbutanamido)benzen-2-yl]-E-acrylic acid] | 200 nM |
| COc1ccc(/C=C/CCCCOc2ccc(NC(=O)c3ccccc3)cc2CCC(=O)O)cc1 [3 (a), 3-[1-[6-(4-methxoyphenyl)hex-5E-enyl]oxy-4-benzamidobenzen-2-yl]propionic acid] | 200 nM |

Now those with a lower IC50, led by results:

| IC50 | Compound |
| --- | --- |
| 80 nM | CCCOc1ccc(/C=C/CCCCOc2ccc(NC(=O)CCCC(=O)N(C)C)cc2CCC(=O)O)cc1 [1 (e), 3-[1-[6-(4-n-propoxyphenyl)hex-5E-enyl]oxy-4-(4-dimethylaminocarbonylbutanamido)benzen-2-yl]propionic acid] |
| 50 nM | C=CCOc1ccc(/C=C/CCCCOc2ccc(NC(=O)CCCC(=O)N(C)C)cc2CCC(=O)O)cc1 [1 (f), 3-[1-[6-[4-(2-propenyl)oxyphenyl]hex-5E-enyl]oxy-4-(4-dimethylaminocarbonylbutanamido)benzen-2-yl]propionic acid] |
| 70 nM | COc1ccc(/C=C/CCCCOc2ccc(NC(=O)CCCC(=O)N3CCc4ccccc43)cc2CCC(=O)O)cc1 [1 (n), 3-[1-[6-(4-methoxyphenyl)hex-5E-enyl]oxy-4-[4-(1-indolinyl)carbonylbutanamido]benzen-2-yl]propionic acid] |
| 50 nM | CSc1ccc(/C=C/CCCCOc2ccc(NC(=O)CCCC(=O)N(C)C)cc2CCC(=O)O)cc1 [1 (q), 3-[1-[6-(4-methylthiophenyl)hex-5E-enyl]oxy-4-(4-dimethylaminocarbonylbutanamido)benzen-2-yl]propionic acid] |
| 170 nM | Cc1ccc(/C=C/CCCCOc2ccc(NC(=O)CCCC(=O)N(C)C)cc2CCC(=O)O)cc1 [1 (s), 3-[1-[6-(4-methylphenyl)hex-5E-enyl]oxy-4-(4-dimethylaminocarbonylbutanamido)benzen-2-yl]propionic acid] |
| 80 nM | COc1ccc(/C=C/CCCCOc2ccc(NC(=O)c3cccc(C(=O)N(C)C)c3)cc2CCC(=O)O)cc1 [1 (u), 3-[1-[6-(4-methoxyphenyl)hex-5E-enyl]oxy-4-(3-dimethylaminocarbonylbenzamido)benzen-2-yl]propionic acid] |
